Reference: PubChem BioAssay (NCI)
Several values for one entry are separate records, joined by “and”; a condition that tells them apart may be missing. Identical values can stand only once.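 Cells were grown in 96-well plates and exposed to each compound for 48 hours at five concentrations; endpoints were interpolated linearly between bracketing concentrations, or set to the highest concentration if not reached. GI50 marks 50% less growth. TGI: concentration producing complete growth inhibition.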

Tests used:
Assay in all cases: DTP human tumour cell line panel, 48 h
[1] = test system: SF-268 CNS
[2] = test system: SF-539 CNS
[3] = test system: SN12C renal
[4] = test system: SNB-75 CNS
[5] = test system: HCT-15 colon
[6] = test system: OVCAR-5 ovarian
[7] = test system: OVCAR-4 ovarian
[8] = test system: HL-60(TB) leukemia
[9] = test system: HCT-116 colon
[10] = test system: HCC-2998 colon
[11] = test system: UO-31 renal
[12] = test system: HOP-62 NSCLC
[13] = test system: SK-MEL-2 melanoma

## OCC1O[C@H](O[C@@H]2CCCN3CC(O)C(O)[C@@H]23)C(O)C(O)C1O (some centres undefined)
[1]
  TGI: > 100 µM
[2]
  TGI: > 100 µM
[3]
  TGI: > 100 µM
[4]
  TGI: > 100 µM
[5]
  TGI: > 100 µM
[6]
  TGI: > 100 µM
[7]
  TGI: > 100 µM
[8]
  TGI: > 100 µM
[9]
  TGI: > 100 µM
[10]
  TGI: > 100 µM
[11]
  TGI: > 100 µM
[12]
  TGI: > 100 µM
[13]
  TGI: > 100 µM

## COc1cc(OC2OC(CO)C(O)C(O)C2O)c2c(O)c3c(=O)cc(C)oc3cc2c1 (centres undefined)
[1]
  TGI: > 100 µM
[2]
  TGI: > 100 µM
[4]
  TGI: > 100 µM
[5]
  TGI: > 100 µM
[6]
  TGI: > 100 µM
[7]
  TGI: > 100 µM
[8]
  TGI: > 100 µM
[9]
  TGI: > 100 µM
[10]
  TGI: > 100 µM
[11]
  TGI: > 100 µM
[12]
  TGI: > 100 µM
[13]
  TGI: > 100 µM

## S=c1sc2c(s1)SC(c1ccccc1)CS2 (centres undefined)
[1]
  TGI: > 100 µM
[2]
  TGI: > 100 µM
[3]
  TGI: > 100 µM
[4]
  TGI: > 94.2 µM
[5]
  TGI: > 100 µM
[6]
  TGI: > 100 µM
[7]
  TGI: > 88.2 µM
[8]
  TGI: > 100 µM
[9]
  TGI: > 100 µM
[10]
  TGI: > 100 µM
[11]
  TGI: > 100 µM
[12]
  TGI: > 100 µM
[13]
  TGI: > 100 µM

## CCCCCC(=O)N[C@@H](c1ccco1)[C@@H](O)C(=O)O[C@H]1C[C@@]2(O)[C@@H](OC(=O)c3ccccc3)[C@@H]3[C@]4(OC(C)=O)CO[C@@H]4C[C@H](O)[C@@]3(C)C(=O)[C@H](OC(C)=O)C(=C1C)C2(C)C
[1]
  GI50: 0.0161 µM
  TGI: > 25 µM
[4]
  GI50: 0.00226 µM
[5]
  GI50: 0.0396 µM
  TGI: > 25 µM
[7]
  TGI: > 25 µM
[9]
  TGI: > 25 µM
[10]
  TGI: > 25 µM
[11]
  GI50: 0.187 µM
  TGI: > 25 µM
[12]
  TGI: > 25 µM

## CCNC(=O)C(C)C1CCC2(C)C=CC(=O)C(C)=C2C1O (centres undefined)
[1]
  TGI: > 100 µM
[2]
  TGI: > 100 µM
[3]
  TGI: > 100 µM
[4]
  TGI: > 100 µM
[5]
  TGI: > 100 µM
[6]
  TGI: > 100 µM
[7]
  TGI: > 100 µM
[8]
  TGI: > 100 µM
[9]
  TGI: > 100 µM
[10]
  TGI: > 100 µM
[11]
  TGI: > 100 µM
[12]
  TGI: > 100 µM
[13]
  TGI: > 100 µM

## Nc1nc(Nc2ccc(Cl)c(Cl)c2)nc2nc[nH]c12
[1]
  TGI: 22.9 µM
[2]
  TGI: 26.7 µM
[3]
  TGI: 44.6 µM
[4]
  TGI: 20.9 µM
[5]
  TGI: 37.2 µM
[6]
  TGI: 75.3 µM
[7]
  TGI: 48.4 µM
[8]
  TGI: 31.9 µM
[9]
  TGI: 34.1 µM
[10]
  TGI: 27.9 µM
[11]
  TGI: 21.3 µM
[12]
  TGI: 26.1 µM
[13]
  TGI: 39.2 µM

## C[N+](C)(CCCCCC[N+](C)(C)CCCN1C(=O)c2cccc3cccc(c23)C1=O)CCCN1C(=O)c2cccc3cccc(c23)C1=O
[1]
  TGI: > 100 µM
[2]
  TGI: > 100 µM
[3]
  TGI: > 100 µM
[5]
  TGI: > 100 µM
[6]
  TGI: > 100 µM
[7]
  TGI: > 100 µM
[8]
  TGI: > 100 µM
[9]
  TGI: > 100 µM
[11]
  TGI: > 100 µM
[13]
  TGI: > 100 µM

## N#C/C(=C\c1ccncc1)c1csc2ccccc12
[1]
  TGI: 82.5 µM
[2]
  TGI: 48.9 µM
[3]
  TGI: > 74.8 µM
[4]
  TGI: 78.5 µM
[5]
  TGI: 77.4 µM
[6]
  TGI: > 89.6 µM
[7]
  TGI: > 100 µM
[8]
  TGI: 35.5 µM
[9]
  TGI: 33.4 µM
[10]
  TGI: 35.8 µM
[11]
  TGI: > 83.2 µM
[12]
  TGI: 63.3 µM
[13]
  TGI: 42.2 µM

## O=C1OC(c2ccccc2)=NC1c1ccccc1 (centres undefined)
[1]
  TGI: > 100 µM
[2]
  TGI: > 100 µM
[3]
  TGI: > 100 µM
[4]
  TGI: > 100 µM
[5]
  TGI: > 100 µM
[6]
  TGI: > 100 µM
[7]
  TGI: > 100 µM
[8]
  TGI: > 100 µM
[9]
  TGI: > 100 µM
[10]
  TGI: > 100 µM
[11]
  TGI: > 100 µM
[12]
  TGI: > 100 µM

## Cc1ccc(/C=C2\Sc3scc(-c4ccccc4)[n+]3C2=O)cc1
[1]
  TGI: 45.5 µM
[2]
  TGI: > 60.6 µM
[3]
  TGI: > 54.2 µM
[4]
  TGI: > 58.9 µM
[5]
  TGI: 50.8 µM
[6]
  TGI: > 100 µM
[7]
  TGI: > 81.1 µM
[8]
  TGI: 5.31 µM
[9]
  TGI: > 52.1 µM
[10]
  TGI: 75 µM
[11]
  TGI: 32 µM
[12]
  TGI: > 100 µM
[13]
  TGI: > 89.1 µM

## O=C(NN1C(=O)C(Cl)C1c1ccccc1O)c1ccccc1O (centres undefined)
[1]
  TGI: > 100 µM
[2]
  TGI: 48.7 µM
[3]
  TGI: > 100 µM
[4]
  TGI: > 100 µM
[7]
  TGI: > 100 µM
[8]
  TGI: 43.3 µM
[9]
  TGI: > 100 µM
[11]
  TGI: 63.8 µM
[12]
  TGI: > 100 µM
[13]
  TGI: > 100 µM

## O=[N+]([O-])C(=C/c1ccccc1)/C(=C\c1ccccc1)[N+](=O)[O-]
[1]
  TGI: 50 µM
[2]
  TGI: 12.7 µM
[3]
  TGI: 49.4 µM
[4]
  TGI: 37 µM
[6]
  TGI: 46.6 µM
[7]
  TGI: 38.1 µM
[9]
  TGI: 31.7 µM
[10]
  TGI: 36 µM
[11]
  TGI: 31.3 µM
[12]
  TGI: 40 µM
[13]
  TGI: 49.1 µM

## O=NN1C(c2ccccc2)CNC(=O)CC1c1ccccc1 (centres undefined)
[1]
  TGI: > 100 µM
[2]
  TGI: 96.1 µM
[3]
  TGI: > 100 µM
[4]
  TGI: > 67.9 µM
[5]
  TGI: > 100 µM
[6]
  TGI: > 100 µM
[7]
  TGI: > 100 µM
[8]
  TGI: > 68.8 µM
[9]
  TGI: > 100 µM
[10]
  TGI: > 100 µM
[11]
  TGI: > 83.6 µM
[12]
  TGI: > 100 µM
[13]
  TGI: > 80 µM

## FC(F)(F)c1ccc2c(c1)N(CCCNCCN1CCOCC1)c1ccccc1S2
[1]
  TGI: 37.2 µM
[2]
  TGI: 16.9 µM
[3]
  TGI: 26.9 µM
[4]
  TGI: 20.9 µM
[5]
  TGI: 19.5 µM
[6]
  TGI: 23.4 µM
[8]
  TGI: 22.2 µM
[9]
  TGI: 11.2 µM
[10]
  TGI: 4.06 µM
[11]
  TGI: 17.5 µM
[12]
  TGI: 27.1 µM
[13]
  TGI: 13.9 µM

## O=C(Nc1ccc([N+](=O)[O-])cc1)Nn1cnnc1
[1]
  TGI: > 100 µM
[2]
  TGI: 73.9 µM
[4]
  TGI: > 100 µM
[5]
  TGI: > 100 µM
[6]
  TGI: > 100 µM
[7]
  TGI: 43.2 µM
[8]
  TGI: > 100 µM
[9]
  TGI: > 100 µM
[10]
  TGI: > 100 µM
[11]
  TGI: > 100 µM
[12]
  TGI: > 100 µM
[13]
  TGI: > 100 µM

## COc1ccccc1/C=C(/C)[N+](=O)[O-]
[1]
  GI50: 5.87 µM and 2.18 µM
  TGI: 30.4 µM and 4.94 µM
[2]
  TGI: 6.6 µM and 3.71 µM
[3]
  TGI: 4.96 µM and 4.41 µM
[4]
  GI50: 14.1 µM and 6.99 µM
  TGI: > 100 µM and 54.7 µM
[5]
  TGI: 7.43 µM and 5.11 µM
[6]
  GI50: 2.89 µM and 6.42 µM
  TGI: 13.4 µM and 27.3 µM
[7]
  TGI: 23.6 µM and 14.8 µM
[8]
  TGI: 4.21 µM and 5.4 µM
[9]
  GI50: 5.36 µM and 2.35 µM
[11]
  TGI: 3.36 µM and 3.39 µM
[12]
  TGI: > 100 µM
[13]
  TGI: 5.01 µM and 4.64 µM

## OCC#CCNCl
[1]
  TGI: > 100 µM
[2]
  TGI: > 100 µM
[3]
  TGI: > 100 µM
[4]
  TGI: > 100 µM
[5]
  TGI: > 100 µM
[6]
  TGI: > 100 µM
[7]
  TGI: > 100 µM
[8]
  TGI: > 100 µM
[9]
  TGI: > 100 µM
[10]
  TGI: > 100 µM
[11]
  TGI: > 100 µM
[12]
  TGI: > 100 µM
[13]
  TGI: > 100 µM
